Legend:
[1] = Comparison of products: duration of disinfectant effectiveness
people [2] = assay: Comparison of products: handling hazards (adverse effects), harm to people; set-up: species or system human
[3] = Comparison of products: filmogenic properties; assay type: physicochemical
[4] = Comparison of products: corrosivity (pH); assay type: physicochemical
[5] = Comparison of products: compatibility with detergents; assay type: physicochemical
[6] = Comparison of products: stability; assay type: physicochemical
people [7] = assay: Comparison of products: application in the presence of people; set-up: species or system human
[8] = room temperature; cited from earlier work

Structure (SMILES) | Duration of effectiveness [1] [days] | Handling hazards (adverse effects) (people [2]; contact with skin and eyes) | Handling hazards (adverse effects) (people [2]; exposure to high concentrations) | Filmogenic properties [3] | Corrosivity: irritancy [4] | Corrosivity: pH [4] | Compatibility with detergents [5] | Stability [6] | Application in the presence of people (people [7]) | concentration with bactericidal activity [8] [%] | concentration with bacteriostatic activity [8] [%]
OCl [Sodium hypochlorite] | 1 | Liquid chlorine causes severe burns | cause nausea and vomiting. | No | irritant | ~11 | Not compatible. Sodium hypochlorite | Not stable, chlorine solutions | No and ventilation recommended | – | –
OO [hydrogen peroxide] | – | – | – | – | – | – | – | – | – | 6 | 3
